According to patent US7803792B2, “Quaternary ammonium compounds” (Asahi Kasei Pharma Corporation, priority 2002, dated 2010):
pIC50: −log10 of the molar value.

Assays:
[1] = system: bile acid loaded rats without partial ligation surgery; assay: Cholestasis-caused hepatopathy model, bile acid loading without partial ligation, protocol B (Test Example 5); format: in vivo, rat; settings: 0.1 mg/kg twice a day 3.5 days, distilled water, average ± standard error
Method: “Cholestasis-Caused Hepatopathy” Model (Bile Duct Partial Ligation Model)
The “cholestasis-caused hepatopathy” model by partial ligation surgery of bile duct in this test example was handled by referring to the method by Kanno et al. [Kanzo (Liver) 43 Suppl (1): A126, 2002].
That is, the abdomen of a 7 to 10 weeks old SD (IGS) male rat was cut open under anesthesia with pentobarbital and partial ligation surgery of the bile duct was carried out. A blood sample was taken from the femoral vein before the surgery and this was taken as pre-administration value. The test compound and 200 mg/kg of bile acid were forcibly orally administered twice a day for 3.5 days from the next day of the surgery (protocol A). The test compound and 200 mg/kg of bile acid were forcibly orally administered twice a day for 3.5 days without carrying out the partial ligation surgery (protocol B). In both the cases, the test compound was dissolved or suspended in distilled water or an aqueous solution of 1% HCO60 (manufactured by NIPPON CHEMICALS COMPANY, LTD.). […] Moreover, to consider the influence of the surgery, a pseudo operation group (a Sham group) was established as necessary. After 6 hours from the administration of the drug on the last day of the test, a blood sample was taken from the abdominal aorta and AST (GOT), ALT (GPT), and ALP in the blood were measured by using a measurement kit (GOTII-HA TEST WAKO, GPTII-HA TEST WAKO, and ALKALINE PHOSPHER-HA TEST WAKO respectively, all manufactured by WAKO PURE CHEMICAL […], LTD.) with an auto analyzer (NITTECH ANALYZER SUPER Z818).

rat IBAT = biological target: T1, rat IBAT (Rattus norvegicus, UniProt Q62633); assay: In vitro assay of temporarily expressed rat IBAT transporter using Cos 7 cells (Test Example 8); format: cell-based; settings: Cos 7 cells temporarily expressing rat IBAT; [3H] taurocholate 8 μM, 37° C., 60 minutes
T1 construct: expressed in transfected cells; host or cells: Cos 7
T1 sequence (Q62633 1-348): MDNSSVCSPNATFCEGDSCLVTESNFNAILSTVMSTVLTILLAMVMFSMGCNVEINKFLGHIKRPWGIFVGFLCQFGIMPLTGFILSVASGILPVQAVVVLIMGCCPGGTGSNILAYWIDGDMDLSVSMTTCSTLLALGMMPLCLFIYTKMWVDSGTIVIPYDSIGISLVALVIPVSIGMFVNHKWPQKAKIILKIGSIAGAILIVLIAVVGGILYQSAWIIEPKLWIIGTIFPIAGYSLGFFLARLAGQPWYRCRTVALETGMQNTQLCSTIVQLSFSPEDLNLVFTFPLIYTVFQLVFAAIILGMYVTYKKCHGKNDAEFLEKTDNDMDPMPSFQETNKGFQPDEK
Method: In Vitro Assay of Compounds Which Inhibit Temporarily Expressed Human IBAT Transporter or Rat IBAT Transporter Using Cos 7 Cells
In this test example, the in vitro assay of the compounds which inhibit temporarily expressed human IBAT transporter or rat IBAT transporter using Cos cells was carried out according to the method described in Am. J. Physiol., 274, G157-169.
That is, […] Cos 7 were inoculated on a 24-well cell plate. One day later, 0.3 μg per well of cDNA of a human IBAT or a rat IBAT was transfected by using FuGENE6 (manufactured by ROCHE PHARMACEUTICAL CO., LTD.). For the assay, the cells cultured for one day after the transfection were used and the following procedure was followed. The cells were washed once with an assay buffer, Hank's buffer solution containing 25 mM glucose and with 10 mM HEPES (pH 7.4), and then the assay buffer was replaced by an assay buffer to which the test compound was added. After adding [^3H] taurocholate to a final concentration of 8 μM, the cells were incubated at 37° C. for 60 minutes. [^3H] taurocholate was allowed to be incorporated in Cos 7 cells through human IBAT or rat IBAT. The reaction was stopped by washing twice with a buffer prepared by adding 1 mM taurocholate to the assay buffer and lyzing the cells with 0.2M NaOH. Measurement of radioactivity was carried out by introducing the cell lyzate in 4 ml of liquid scintillation cocktail, stirring the mixture well, and then measuring the radioactivity by a scintillation counter.

[2] = system: Na+ dependent amino acid transporter; assay: In vitro assay on Na+ dependent amino acid transporter using Cos 7 cells (Test Example 10); format: cell-based; settings: [3H] alanine 8 μM, 37° C., 60 minutes, read-out: IC50 (μM) against alanine transporter
Method: In Vitro Assay of Effects of Compounds on Na^+ Dependent Amino Acid Transporter and Na^+ Dependent Water-Soluble Vitamin Transporter Using Cos 7 Cells
In this test example, the in vitro assays of the compound on various transporters using Cos 7 cells were carried out according to the method described in Published Translation of Japanese Patent Application No.10-503830.
That is, […] of Cos 7 cells were inoculated on a 24-well cell plate. Two days later, the cells were washed once with an assay buffer, Hank's buffer solution containing 25 mM glucose and with 10 mM HEPES (ph 7.4), and then the buffer was replaced by an assay buffer to which the test compound was added. After adding to this, [^3H] alanine (trade name; NET-348, manufactured by DAIICHI CHEMICAL CO., LTD.), [^3H] leucine (trade name: NET-460, manufactured by DAIICHI CHEMICAL CO., LTD.), [^3H] phenylalanine (trade name: MT903, MORAVEK), [^3H] methionine (trade name: MT862, MORAVEK), [^3H] lysine (trade name: MT909, MORAKEK), or [^3H] choline (trade name: TRK593, […] BIOSCIENCES CO., LTD.) to a final concentration of 8 μM, the mixture was incubated at 37° C. for 60 minutes to allow Cos 7 cells to incorporate them. […] Measurement of the radioactivity was carried out by introducing the lyzate in 4 ml of liquid scintillation cocktail, stirring the mixture well, and then measuring on a liquid scintillation counter. […]

SMILES	ALT ([1]; control 82 ± 17) [IU/L]	AST ([1]; control 157 ± 35) [IU/L]	ALP ([1]; control 593 ± 77) [IU/L]	pIC50 (rat IBAT)	IC50 [2] [µM]
CCCCC1(CCCC)CS(=O)(=O)c2ccc(N(C)C)cc2C(c2cccc(NC(=S)CCCCC[N+]34CCC(CC3)CC4)c2)N1.[Br-] (stereo not drawn) [Example 1, 1-{5-[3-(3,3-Dibutyl-7-dimethylamino-1,1-dioxo-2,3,4,5-tetrahydro-1,4-benzothiazepin-5-yl)phenylthiocarbamoyl]pentyl}-1-azoniabicyclo[2.2.2]octane bromide]	53 ± 6	100 ± 2	453 ± 50	8.15	33
CCCCC1(CCCC)CS(=O)(=O)c2ccc(N(C)C)cc2C(c2cccc(NC(=S)Nc3ccc(C[N+](C)(C)Cc4ccccc4)cc3)c2)N1.[Br-] (stereo not drawn) [Example 3440]				8.00	
